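All cell lines were grown in 96-well plates and treated with compound for 48 hours. GI50: concentration for 50% inhibition of growth.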 Activity calls are given as the source filed them. Rule as the data show it: active = GI50 up to about 1.1 µM and inactive = higher. A value given as a limit tells only on which side of the number the result lay.

This note sets out measurements from ChEMBL document CHEMBL1201862, “PubChem BioAssay data set” (2004).

Among the test systems are DU-145; SF-295; 786-0; SK-MEL-5; SN12C; T47D; SR; HCT-116; HOP-92; SF-268; HOP-62; MCF7; NCI-H460; M14; A549; MDA-N; UO-31; CAKI-1; SK-MEL-2; SK-OV-3.
What all share (experiment): NCI tumour cell line growth inhibition, 48 h

Consider `O=C1CNc2cc(N3CCN(c4cccc(C(F)(F)F)c4)CC3)ccc2N1`, for which the GI50 with DU-145 was > 100 µM (inactive); with SF-295 it was 24.3 µM (inactive); in the assay on 786-0, > 100 µM (inactive); with SK-MEL-5, 18.9 µM (inactive); in the assay with SN12C, > 100 µM (inactive); in the assay on T47D, 32.3 µM (inactive). Further, the GI50 in the assay with SR was 46.3 µM (inactive); in the assay on HCT-116 it was 35.7 µM (inactive); in the assay with HOP-92 it was > 100 µM (inactive); in the assay with SF-268, > 100 µM (inactive); in the assay on HOP-62, > 100 µM (inactive); with MCF7, 43.1 µM (inactive). Also, the GI50 is 53 µM (inactive) in the assay on NCI-H460; 18 µM (inactive) in the assay on M14; 24.7 µM (inactive) in the assay with A549; 84.5 µM (inactive) in the assay on MDA-N; 24.7 µM (inactive) in the assay on UO-31; > 100 µM (inactive) in the assay with CAKI-1. Further, the results for the GI50 in the assay with SK-MEL-2 and in the assay with SK-OV-3 were 0.755 µM (active) and > 100 µM (inactive), respectively.
